Measured values published in publication PMC8003343 (Pharmaceuticals, 2021).
Values belong to the compound of their own block, whether it stands above or below them.

Legend:
[1] = Enone metabolite formation in rat liver microsomes; format: in vitro ADME; details: 6 at 4 µM, 0.4 mg/mL RLM, 100 min
Experimental: (§1) In preliminary experiments, the potential enone precursors 5–8 (8 µM) were incubated with either RLM (0.4 mg/mL) or HLM (0.8 mg/mL) for up to 4 h according to the protocol given in Section 4.3.1. Multiple samples were taken during incubation and analyzed with regard to the presence of the enone metabolite 4 in the incubation mixture.
(§2) The time course of the formation of 4 from precursor 6 was monitored by incubation of 6 (4 µM) with either 1.0 mg/mL HLM for 150 min or 0.4 mg/mL RLM for 100 min according to the procedures described in Section 4.3.1. but with a prolonged centrifugation cycle (15 min) for protein precipitation. Chromatographic separation was performed on a Kromasil C18 column (see Section 4.3.1) equipped with a 3 mm NH2 guard column (OPTI-GUARD, Optimize Technologies Inc., Oregon City, OR, USA) using an eluent composed of MeCN/H2O/AcOH 45:55:0.1 (v/v/v). All other chromatographic parameters resembled those given above. Incubations were conducted in triplicate.

[2] = Enone metabolite formation in human liver microsomes; format: in vitro ADME; details: 6 at 4 µM, 1.0 mg/mL HLM, 150 min
Experimental: as §1, §2

[3] = In vitro intrinsic clearance in human liver microsomes (HLM); format: in vitro ADME
Experimental: (§3) Liver microsomes from Sprague Dawley rats (RLM), CD-1 mice (MLM), beagle dogs (DLM), Göttinger mini pigs (MPLM), rhesus monkeys (RMLM), and humans (HLM, specified total P450 content: 0.286 nmol/mg protein) were obtained from Thermo Fisher Scientific/Life Technologies (Darmstadt, Germany). Optimization of incubation conditions (microsomal protein concentration, substrate solvent, incubation buffer) has been carried out in a previous study. For assessment of intrinsic clearance (CLint), substrate (8 µM CBX, MCBX or CPFPX, stock solutions in DMSO) and microsomes (0.4 mg/mL RLM, MLM, DLM and MPLM, 2.0 mg/mL HLM and 0.04 mg/mL RMLM) were preincubated for 5 min at 37 °C in HEPES buffer (100 mM, pH 7.4) containing MgCl2 (3.3 mM). Enzymatic reactions were initiated by addition of preheated NADPH (1.3 mM) and were allowed to proceed for 30 min. Aliquots (100 µL) were sampled from the incubation mixture (500 µL total volume) at 0 and 30 min. An equal volume of a mixture of MeOH/MeCN (50:50, v/v, cooled to −20 °C) was added to terminate the reaction. After subsequent homogenization on a vortex mixer (1 min, 21 °C) and centrifugation (10 min, 20,000× g rcf, 21 °C), the supernatants (50 µL aliquots) were analyzed via HPLC-UV/VIS (Knauer smartline system equipped with a Rheodyne type 7125 sample injector and a 500 µL sample loop). Chromatographic conditions were as follows. Column: 4.6 mm × 250 mm Kromasil 100-5-C18 (AkzoNobel, Bohus, Sweden); eluent composition: MeCN/H2O/AcOH 48:52:0.2 (v/v/v); flow rate: 1 mL/min; detection wavelength: 275 nm. Microsomal assays were performed in quadruplicate.
(§4) Elimination rate constants (k) of CBX, MCBX, and CPFPX were derived via linear regression analysis of semi-logarithmic peak area vs. time plots.
(§5) In vitro half-life (t1/2) was calculated as:(1) t1/2=ln2/k
(§6) In vitro intrinsic clearance was calculated as follows:(2) Clint=ln2/t1/2[…] where c is the microsomal protein concentration. Since the main focus of the study was to compare CLint between species, but not between compounds, no correction for the microsomal unbound fraction was applied.

[4] = In vitro intrinsic clearance in rat liver microsomes (RLM); format: in vitro ADME, Sprague Dawley rats; details: microsomes from rat, mouse, mini pig, and rhesus
Experimental: as §3, §4, §5, §6

[5] = In vitro intrinsic clearance in dog liver microsomes (DLM); format: in vitro ADME, beagle dogs
Experimental: as §3, §4, §5, §6

[6] = Metabolite profiles in liver microsomes from various species (HPLC-UV/LCMS); format: in vitro ADME, human, rat, mouse, dog, mini pig, rhesus monkey; details: for number of metabolites produced by microsomal metabolism: in the microsomes of the test species; for species whose metabolite profile is most similar to the human metabolite profile: liver microsomes; for Species (liver microsomes in which the peak was found): h human, r rat, m mouse, d dog, mp mini pig, rh rhesus, brackets indicate minor peaks, 275 nm
Experimental: Microsomal assays aimed at metabolite profiling were conducted according to the protocol described in Section 4.3.1, but with 10 µL substrate (CBX, MCBX, CPFPX) in a total incubation volume of 1 mL. In Table 6, microsomal protein concentrations and incubation times used in the individual assays are listed. Blank samples containing all matrix components but no substrate were included. Incubations were terminated by adding two volumens of a mixture of MeOH/MeCN (50:50, v/v, cooled to −20 °C). Samples were then vortexed (1 min, 21 °C), centrifuged (10 min, 20,000× g rcf, 21 °C), and evaporated to dryness using a centrifugal vacuum concentrator (Concentrator 5301, Eppendorf, Wesseling-Berzdorf, Germany) set to a temperature of 45 °C. Dried samples were reconstituted with 160 µL HPLC eluent (MeCN/H2O/AcOH 35:65:0.1 (v/v/v)) and centrifuged (3 min, 20,000× g rcf, 21 °C). Aliquots of the clear supernatant (25 µL) were subsequently injected into the HPLC system. Chromatographic parameters were the same as described in Section 4.3.1, except for the addition of a 3 mm NH2 guard column (OPTI-GUARD, Optimize Technologies Inc., Oregon City, OR, USA). For LCMS analyses, the UV-detector outlet was coupled to a mass spectrometer (MSQ PlusTM, Thermo Electron Corporation, San Jose, CA, USA) via an electrospray interface. LCMS parameters were as follows. Nebulizer M gas pressure: 6 bar; desolvation temperature: 500 °C; positive ion mode (ESI+); sprayer voltage: 3000 V; cone voltages: 50 V (unfragmented spectra) or 185 V (fragmented spectra), m/z range 1–800; scan time: 1 s. Mass spectra were analyzed using Xcalibur software (version 3.0).

[7] = design: method as in PMID 1441590; details: human microsomes from a single donor; cited from earlier work
[8] = In vitro intrinsic clearance in rhesus monkey liver microsomes (RMLM); format: in vitro ADME, rhesus monkeys; details: rhesus vs human liver microsomes; highest ratio among the three compounds
Experimental: as §3, with “Aliquots (100 µL) were sampled from the incubation mixture (500 µL total volume) at 0 and 30 min. An equal volume of a mixture of MeOH/MeCN (50:50, v/v, cooled to −20 °C) was added to terminate the reaction.” left out, “Chromatographic conditions were as follows. Column: 4.6 mm × 250 mm Kromasil 100-5-C18 (AkzoNobel, Bohus, Sweden); eluent composition: MeCN/H2O/AcOH 48:52:0.2 (v/v/v); flow rate: 1 mL/min; detection wavelength: 275 nm. Microsomal assays were performed in quadruplicate.” left out
as §5
In vitro intrinsic clearance was calculated as follows:(2) Clint=ln2/t1/2×c where c is the microsomal protein concentration. […]

[9] = radiometabolite of [18F]CPFPX; cited from earlier work
[10] = from [18F]CPFPX; cited from earlier work
[11] = rats and mice after [18F]CPFPX injection; cited from earlier work
[12] = from [18F]CPFPX; cited from earlier work; remark: listed apart in the source

Compound: CCCn1c(=O)c2[nH]c(C3(C)CCC3)nc2n(CCCF)c1=O [MCBX, 3-(3-Fluoropropyl)-8-(1-methylcyclobutyl)-1-propylxanthine]
rank order of CLint [3]: CBX > CPFPX > MCBX | rank order of CLint [4]: CPFPX > MCBX > CBX | rank order of CLint [5]: CPFPX > MCBX ≈ CBX | number of metabolites produced by microsomal metabolism [6]: up to 10 metabolites | species whose metabolite profile is most similar to the human metabolite profile [6]: Rodent | Species (liver microsomes in which the peak was found) ([6]; substrate MCBX): h, r, m, d, mp, rh

Compound: Cn1c(=O)c2c(ncn2C)n(C)c1=O [caffeine]
rate of metabolism in hepatic microsomes, species comparison [7]: considerably higher in hepatic microsomes from humans than in those from rats or monkeys

Compound: CCCn1c(=O)c2nc(C3CCCC3)[nH]c2n(CCCF)c1=O [CPFPX, 8-Cyclopentyl-3-(3-fluoropropyl)-1-propylxanthine]
CLint in rhesus microsomes relative to human microsomes (fold higher) [8]: 134 fold | rank order of CLint [3]: CBX > CPFPX > MCBX | rank order of CLint [4]: CPFPX > MCBX > CBX | rank order of CLint [5]: CPFPX > MCBX ≈ CBX | number of metabolites produced by microsomal metabolism [6]: up to 12 metabolites | Species (liver microsomes in which the peak was found) ([6]; substrate CPFPX): h, r, m, d, mp, rh

Now from value to compound, other results behind:

metabolic fate (time course) in rat liver microsomes [1]: oxidized to produce 9
Compound: CCCn1c(=O)c2[nH]c(C3=CCCC3)nc2n(CCCF)c1=O [compound 6, 8-(Cyclopent-1-en-1-yl)-3-(3-fluoropropyl)-1-propylxanthine]
metabolic fate (time course) in human liver microsomes [2]: biotransformation proceeds from 6 via 9 to 4

rank order of CLint [3]: CBX > CPFPX > MCBX | rank order of CLint [4]: CPFPX > MCBX > CBX | rank order of CLint [5]: CPFPX > MCBX ≈ CBX | species whose metabolite profile is most similar to the human metabolite profile [6]: rhesus monkey and mini pig | Species (liver microsomes in which the peak was found) ([6]; substrate CBX): (h), r, m, d, (mp), rh
Compound: CCCn1c(=O)c2[nH]c(C3CCC3)nc2n(CCCF)c1=O [CBX, 8-Cyclobutyl-3-(3-fluoropropyl)-1-propylxanthine]

species microsomes generating the enone metabolite from CPFPX ([6]; substrate CPFPX): exclusively in human and dog microsomes | Species (liver microsomes in which the peak was found) ([6]; substrate CPFPX): h, d
Compound: CCCn1c(=O)c2[nH]c(C3=CC(=O)CC3)nc2n(CCCF)c1=O [compound 4, 3-(3-Fluoropropyl)-8-(3-oxocyclopent-1-en-1-yl)-1-propylxanthine]
blood–brain barrier penetration [9]: does not penetrate the blood–brain barrier | excretion from the body [9]: slow excretion from the body | formation of the enone radiometabolite in microsomes from rats and mice [10]: almost no significant amounts could be detected | formation of the enone metabolite in vivo (plasma) [11]: generated in vivo | formation of the enone radiometabolite in human microsomes [12]: extensive formation

metabolic fate (time course) in rat liver microsomes [1]: remained constant | metabolic fate (time course) in human liver microsomes [2]: further metabolized to 4
Compound: CCCn1c(=O)c2[nH]c(C3=CC(O)CC3)nc2n(CCCF)c1=O (centres unmarked) [compound 9, 3-(3-fluoropropyl)-8-(3-hydroxycyclopent-1-en-1-yl)-1-propylxanthine]
